The source of these data is article PMC5573420, “Correlation between human ether‐a‐go‐go‐related gene channel inhibition and action potential prolongation” (British Journal of Pharmacology, 2017).

A word on the Ki: it is a measure of affinity in units of concentration, obtained from inhibition or displacement. The term IC50 denotes the concentration that inhibits the measured activity by half. Lower therefore signals higher potency.

One series concerns hERG potassium channels. To be noted: cited from earlier work.
A further series relates to hiPSC-CMs. Put plainly: Optical measurement of action potential duration (APD90) in hiPSC-CMs using voltage-sensitive dye di-4-ANEPPS. To be noted: for Maximal AP prolongation: maximal level over concentrations tested. The procedure:
The plates were then incubated at 37°C, 5% CO2. Forty‐eight hours post‐thaw, 100% of the plating medium was replaced with CDI Maintenance Medium (CDI, CMC‐100‐120‐001), and further, 100% media changes were performed every 2 days after that.
Afterwards, the medium containing VSD was replaced by fresh serum‐free medium, and the cells were returned to the incubator. The multi‐well plate was placed in an environmentally controlled stage incubator (37°C, 5% CO2, water‐saturated air atmosphere) (Okolab Inc, Burlingame, CA, USA) of the CelIOPTIQ platform (Clyde Biosciences Ltd, Glasgow, Scotland). The di‐4‐ANEPPS fluorescence signal was recorded from a 0.2 × 0.2 mm area using a 40× (NA 0.6) objective lens. Excitation wavelength was 470 ± 10 nm using a light‐emitting diode (LED), and emitted light was collected by two photomultipliers (PMTs) at 510–560 and 590–650 nm respectively. LED, PMT, associated power supplies and amplifiers were supplied by Cairn Research Ltd (Kent, UK). […] A 20 s recording was then taken 30 min after exposure to the drug or vehicle with only one concentration applied per well. The records were subsequently analysed offline using proprietary software (CellOPTIQ). The procedure was repeated from four to five times, and parallel matched control (vehicle) measurements were taken on cardiomyocytes with equivalent concentrations of vehicle (DMSO). AP parameters were measured, including APD at 50, 75 and 90% repolarization (APD50, APD75 and APD90 respectively). Data are given as % change from control for the treated groups (vehicle, control and drug). This allowed a single comparison to be made at each concentration, and every experiment was performed with its own set of controls (vehicle). No data were used more than once.

In a further series the target is hERG channels (Homo sapiens, UniProt Q12809). Description: hERG current inhibition, automated planar patch clamp in HEK293 cells stably expressing hERG. The procedure: Currents were low‐pass filtered at 10 kHz using the internal Bessel filter and sampled at 25 kHz. The extracellular solution for hERG current recording contained 140 mM NaCl, 4 mM KCl, 2 mM CaCl2, 1 mM MgCl2,5 mM D‐glucose and 10 mM HEPES (pH 7.4) (Sigma‐Aldrich). The intracellular solution for hERG current recording contained 50 mM KCl, 10 mM NaCl, 60 mM KF, 20 mM EGTA and 10 mM HEPES (pH 7.2). The extracellular solution for measuring sodium currents in HEK cells stably expressing the human clone of Nav1.5 (GenBank M77235) contained 4 mM KCl, 20 mM NaCl, 1.8 mM CaCl2, 0.75 mM MgCl2, 5 mM HEPES, 120 mM choline chloride and pH 7.4 using NaOH. The intracellular solution for sodium current recording contained 120 mM CsF, 20 mM CsCl, 5 mM EGTA, 5 mM HEPES and pH 7.4 using CsOH. All chemicals were obtained from Sigma‐Aldrich Chemie GmbH (Taufkirchen, Germany). The compound solutions were applied by means of the automated NPC‐16 Patchliner planar patch‐clamp platform.
hERG channels, sequence (Q12809 whole entry): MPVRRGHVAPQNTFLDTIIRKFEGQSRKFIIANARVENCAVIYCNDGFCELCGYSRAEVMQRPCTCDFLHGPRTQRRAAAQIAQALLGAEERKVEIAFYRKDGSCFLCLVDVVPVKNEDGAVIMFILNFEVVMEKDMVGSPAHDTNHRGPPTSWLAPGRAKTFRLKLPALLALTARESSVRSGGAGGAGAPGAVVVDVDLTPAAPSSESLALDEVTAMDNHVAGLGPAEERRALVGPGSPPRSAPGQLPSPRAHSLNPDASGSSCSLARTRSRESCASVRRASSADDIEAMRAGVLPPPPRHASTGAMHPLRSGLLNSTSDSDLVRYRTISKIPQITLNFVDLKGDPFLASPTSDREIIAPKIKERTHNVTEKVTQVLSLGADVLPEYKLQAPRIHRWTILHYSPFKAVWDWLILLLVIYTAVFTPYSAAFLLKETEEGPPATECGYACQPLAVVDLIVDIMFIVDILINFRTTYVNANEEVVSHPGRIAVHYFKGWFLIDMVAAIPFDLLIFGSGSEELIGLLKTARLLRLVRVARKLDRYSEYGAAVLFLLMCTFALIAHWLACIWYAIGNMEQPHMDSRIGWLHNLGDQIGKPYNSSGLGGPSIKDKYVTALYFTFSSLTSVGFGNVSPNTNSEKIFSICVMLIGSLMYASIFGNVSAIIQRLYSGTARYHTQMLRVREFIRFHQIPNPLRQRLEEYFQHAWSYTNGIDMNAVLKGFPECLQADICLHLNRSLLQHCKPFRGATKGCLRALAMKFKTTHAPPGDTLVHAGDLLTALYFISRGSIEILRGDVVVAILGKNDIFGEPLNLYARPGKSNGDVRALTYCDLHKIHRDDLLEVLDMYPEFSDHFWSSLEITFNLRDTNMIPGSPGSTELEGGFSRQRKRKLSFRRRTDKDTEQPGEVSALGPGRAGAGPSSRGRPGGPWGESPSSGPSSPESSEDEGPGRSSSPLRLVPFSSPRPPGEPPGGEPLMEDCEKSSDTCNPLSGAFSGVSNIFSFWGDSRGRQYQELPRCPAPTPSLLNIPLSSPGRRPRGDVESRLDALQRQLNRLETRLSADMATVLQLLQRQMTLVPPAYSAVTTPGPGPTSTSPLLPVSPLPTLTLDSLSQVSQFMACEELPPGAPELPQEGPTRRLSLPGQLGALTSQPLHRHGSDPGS
Data are presented as mean ± SEM for at least five cells from two different batches or for three independent measurements with HEK293 cells.
The concentration–inhibition relationships were analysed by plotting the normalized values of peak tail current versus peak tail steady current in the presence of the respective cumulatively applied compound concentrations (Figure 4B, C). Data points were fitted using Hill equation.
A general note: Block of hERG is tested as a sign of cardiac risk.

Where [1] appears, read: read-out: Ki binding studies, radioligand binding, ref Shagufta et al 2009.
[2] abbreviates: Homo sapiens, 0.5 h, read-out: Changes in APD90 in hiPSC-CMs.
[3] abbreviates: Homo sapiens, read-out: D150 (concentration that prolongs the AP by 50%), APD90 in hiPSC-CMs.
Setting [4] is: Homo sapiens, 0.5 h, read-out: Changes in APD90 in hiPSC-CMs, 1 nM, 30 min exposure.
The mark [5] stands for this setting: Homo sapiens, 0.5 h, read-out: Changes in APD90 in hiPSC-CMs, 10 nM, 30 min exposure.
The mark [6] stands for this setting: Homo sapiens, 0.5 h, read-out: Changes in APD90 in hiPSC-CMs, 30 nM, 30 min exposure.
The mark [7] stands for this setting: Homo sapiens, 0.5 h, read-out: Changes in APD90 in hiPSC-CMs, 100 nM, 30 min exposure.
Setting [8] is: Homo sapiens, 0.5 h, read-out: Changes in APD90 in hiPSC-CMs, 300 nM, 30 min exposure.
Setting [9] is: Homo sapiens, read-out: D150 (concentration that prolongs the AP by 50%).

Like-named read-outs stand apart in the source and are kept apart here. Bounds are passed on as bounds.

On to `CN(CCOc1ccccc1)CCc1ccccc1` [Dofe30], for which the Ki in the series on hERG potassium channels (setting [1]) was greater than 10000 nM. Also, in the series with hiPSC-CMs (setting [2]), the activity at 0.01 µM came to 99%, the activity at 0.03 µM amounted to 92%, the activity at 0.1 µM was determined as 105% and the activity at 0.3 µM was determined as 190%. The activity at 1 µM in the series with hiPSC-CMs (setting [2]) is 140%. The EC (50% APD prolongation) in the series with hiPSC-CMs (setting [3]) was determined as 0.213 µM. For the same compound, the “Incidence of EADs” value with hiPSC-CMs (hiPSC-CMs) was “without (if any) incidence of EADs”. This compound had an IC50 on hERG channels of 297 ± 77.5 nM.

In the case of `CN(CCOc1ccc(Cl)cc1)CCc1ccc(Cl)cc1` [Dofe31], the “Incidence of EADs” value in the series with hiPSC-CMs is reported as “without (if any) incidence of EADs”. Further, in the series on hiPSC-CMs (setting [2]), the activity at 0.001 µM turned out to be 127%, the activity at 0.01 µM is 100%, the activity at 0.03 µM turned out to be 103% and the activity at 0.1 µM was found to be 108%. Moreover, in the series with hiPSC-CMs (setting [2]), the activity at 0.3 µM came out at 214% and the activity at 1 µM was 296%. Further, the EC (50% APD prolongation) in the series with hiPSC-CMs (setting [3]) was found to be 0.151 µM.

For `Cc1ccc(CCN(C)CCOc2ccc(C)cc2)cc1` [Dofe33], in the series with hiPSC-CMs, the “Effect on APD90 / AP prolongation (in words)” value is given as “negligible effect on APD90 prolongation until 100 nM”. In addition, the “Maximal AP prolongation” value with hiPSC-CMs (hiPSC-CMs) is 250%.

Regarding `CN(CCOc1ccc([N+](=O)[O-])cc1)CCc1ccc([N+](=O)[O-])cc1` [Dofe35], the inhibition constant Ki in the series on hERG potassium channels is 5.7 ± 3 nM. Further, the activity at 0.001 µM in the series with hiPSC-CMs (setting [4]) was 102%. The activity at 0.01 µM in the series on hiPSC-CMs (setting [5]) was 159%. The activity at 0.03 µM with hiPSC-CMs (setting [6]) turned out to be 770%. In the series with hiPSC-CMs (setting [7]), the activity at 0.1 µM turned out to be 746%. Besides, in the series with hiPSC-CMs (setting [8]), the activity at 0.3 µM was determined as 650%. Besides, the EC (50% APD prolongation) with hiPSC-CMs (setting [9]) was found to be 0.0083 µM. Also, in the series on hiPSC-CMs (hiPSC-CMs), the “Incidence of EADs” value is “incidence of EADs at the higher concentrations” and the “Maximal AP prolongation” value was no more than 1000%. At hERG channels, this compound displayed an IC50 of 22.1 nM.

On to `CN(CCOc1ccc(Cl)cc1)CCc1ccccc1` [Dofe41], for which, in the series with hiPSC-CMs (setting [2]), the activity at 0.01 µM amounted to 140%, the activity at 0.1 µM came to 144%, the activity at 0.3 µM came out at 162% and the activity at 1 µM was determined as 262%. Besides, the EC (50% APD prolongation) with hiPSC-CMs (setting [3]) was 0.157 µM. Further, the “Incidence of EADs” value in the series on hiPSC-CMs (hiPSC-CMs) is listed as “without (if any) incidence of EADs”.

As for `Cc1ccc(OCCN(C)CCc2ccccc2)cc1` [Dofe43], in the series on hiPSC-CMs (setting [2]), the activity at 0.01 µM was 167%, the activity at 0.1 µM came out at 156%, the activity at 0.3 µM was determined as 175% and the activity at 1 µM is 390%. The EC (50% APD prolongation) in the series with hiPSC-CMs (setting [3]) turned out to be 0.0993 µM. The “Incidence of EADs” value in the series on hiPSC-CMs (hiPSC-CMs) is recorded as “without (if any) incidence of EADs”.

On to `CCN(CCOc1ccc([N+](=O)[O-])cc1)CCc1ccc([N+](=O)[O-])cc1` [Dofe54], for which the Ki with hERG potassium channels (setting [1]) is 1.2 ± 0.6 nM. For the same compound, the activity at 0.001 µM in the series with hiPSC-CMs (setting [4]) is 107%. The activity at 0.03 µM in the series with hiPSC-CMs (setting [6]) was 702%. Moreover, the activity at 0.1 µM with hiPSC-CMs (setting [7]) came to 710%. Further, the EC (50% APD prolongation) with hiPSC-CMs (setting [9]) was 0.0043 µM. Also, in the series on hiPSC-CMs (hiPSC-CMs), the “Incidence of EADs” value was “incidence of EADs at the higher concentrations” and the “Maximal AP prolongation” value was no more than 1000%. The same compound returned an IC50 against hERG channels of 2.6 ± 0.4 nM.

For `O=[N+]([O-])c1ccc(CCN(CCF)CCOc2ccc([N+](=O)[O-])cc2)cc1` [Dofe60], the activity at 0.001 µM in the series with hiPSC-CMs (setting [4]) was 95%. For the same compound, the activity at 0.01 µM with hiPSC-CMs (setting [5]) stood at 112%. Moreover, the activity at 0.03 µM in the series on hiPSC-CMs (setting [6]) was determined as 185%. Also, the activity at 0.1 µM with hiPSC-CMs (setting [7]) is 771%. Moreover, the activity at 0.3 µM in the series on hiPSC-CMs (setting [8]) is 413%. In addition, the EC (50% APD prolongation) in the series on hiPSC-CMs (setting [9]) was determined as 0.0213 µM. In the series with hiPSC-CMs (hiPSC-CMs), the “Incidence of EADs” value is recorded as “incidence of EADs at the higher concentrations” and the “Maximal AP prolongation” value is recorded as no more than 1000%.

Take `CN(CCCOc1ccc([N+](=O)[O-])cc1)Cc1ccc([N+](=O)[O-])cc1` [Dofe78]: in the series on hERG potassium channels (setting [1]), the Ki is 5.1 ± 1.9 nM. Further, in the series with hiPSC-CMs (setting [2]), the activity at 0.01 µM is 116%, the activity at 0.1 µM amounted to 420%, the activity at 0.3 µM was determined as 300% and the activity at 1 µM was 417%. Also, the EC (50% APD prolongation) in the series on hiPSC-CMs (setting [3]) was 0.02 µM. Moreover, in the series on hiPSC-CMs (hiPSC-CMs), the “Incidence of EADs” value is reported as “incidence of EADs at the higher concentrations” and the “Maximal AP prolongation” value was no more than 1000%. At hERG channels, this compound displayed a concentration for half-maximal inhibition (IC50) of 28.2 ± 4.9 nM.

With `CN(CCCCOc1ccc([N+](=O)[O-])cc1)CCc1ccc([N+](=O)[O-])cc1` [Dofe81], the Ki in the series with hERG potassium channels is 1.8 ± 1.6 nM. In the series on hiPSC-CMs (setting [4]), the activity at 0.001 µM was determined as 117%. Also, the activity at 0.01 µM in the series on hiPSC-CMs (setting [5]) worked out at 389%. Also, the activity at 0.03 µM with hiPSC-CMs (setting [6]) was determined as 858%. Further, the EC (50% APD prolongation) with hiPSC-CMs (setting [9]) worked out at 0.0025 µM. For the same compound, in the series on hiPSC-CMs (hiPSC-CMs), the “Incidence of EADs” value is recorded as “incidence of EADs at the higher concentrations” and the “Maximal AP prolongation” value is no more than 1000%. Besides, the IC50 against hERG channels was found to be 10.7 nM.

In the case of `CN(CCOc1ccc(NS(C)(=O)=O)cc1)CCc1ccc(NS(C)(=O)=O)cc1` [Dofetilide, reference compound], the Ki with hERG potassium channels was 4.1 ± 0.9 nM. For the same compound, in the series on hiPSC-CMs (100 nM, hiPSC-CMs), the “Spontaneous rate of myocyte contraction” value was “dramatically increased”. Moreover, in the series with hiPSC-CMs (Homo sapiens, 0.5 h, read-out: Changes in APD90 in hiPSC-CMs, 0.1 nM, 30 min exposure), the activity at 0.0001 µM amounted to 191%. For the same compound, the activity at 0.001 µM in the series on hiPSC-CMs (setting [4]) was found to be 246%. Also, the activity at 0.01 µM in the series on hiPSC-CMs (setting [5]) stood at 641%. Moreover, the activity at 0.03 µM with hiPSC-CMs (setting [6]) came to 827%. The EC (50% APD prolongation) in the series with hiPSC-CMs (setting [3]) stood at 4e-05 µM. Moreover, in the series with hiPSC-CMs (hiPSC-CMs), the “Incidence of EADs” value was “incidence of EADs at concentrations of 10, 30 and 100 nM”.
